According to patent publication US4431662A, “1-(1,3-Benzodioxol-5-yl)-2-pyrrolidinone and its medicinal use” (priority 1981, dated 1984):

What was measured:
[1] = Yeast-Induced Hyperthermia Assay, antipyretic activity; type: in vivo; settings: rat; for ED50: po; for antipyretic activity (in words): yeast-induced hyperthermia assay
Excerpt: The Yeast-Induced Hyperthermia Assay was used according to the procedure described by Khalili-Varasteh et al. in Arch. Int. Pharmacodyn.

[2] = Modified Trypsin Hyperalgesic Assay (THA) in the rat; type: in vivo
Procedure: The analgesic agents were administered 30 minutes after the administration of trypsin. In addition, a modification of Vinegar's published assay was carried out, comprising the administration of the analgesic agent preceding subplantar injection of trypsin (0.10 ml of 10% solution of trypsin in pyrogen-free water) by 15 minutes. In both THA's, pain scores were determined 60 minutes after trypsin injection. The result of the modification was to increase the sensitivity of the THA to the mild analgesic action of the agents.
There were usually 6 rats at each dose level and at least 3 dose levels were used.

[3] = Rat Hot Plate Assay; type: in vivo; settings: for Hot Plate Assay - Rat ED50, inactive: at 360 mg/kg; for ED50: po, 1 h, read-out: Hot Plate Assay - Rat ED50
Excerpt: The rat hot plate assay incorporated 2 modifications of the mouse hot plate assay originally described by Eddy et al., J. Pharmacol. Exp. Ther. 98, 121-137 (1950). The first modification was enlargement of the diameter of the cylindrical (water filled) copper plate to 25.0 cm to accommodate rats instead of mice. The second modification was the use of a temperature controller to regulate a 250 watt infrared heat lamp which was activated via a thermistor probe attached to the undersurface of the top of the copper plate. The surface temperature was thus maintained at 45±1.0° C. (N=28 measurements of the plate temperature under experimental conditions). The time in which a rat placed on the hotplate responded by lifting, shaking or licking either of its hind or forelimbs was recorded in tenths of a second. Only animals responding in pretest within 6-13 seconds were used in the studies. Drugs were suspended in 0.5% sodium carboxymethylcellulose and administered orally, by gavage, in a volume of 1.00 ml/100 g.b. wt. 60 min prior to testing. […] The reaction time of 18.3 seconds represented the sum of the mean pretest times of 40 untreated rats plus the time of 3 standard deviations of the mean. ED50 's and their standard errors were estimated from a graph of the dose-response curves using the method of Miller and Tainter (Proc. Soc. Exp. Biol. Med. 57, 261-262 (1944). Following this procedure the analgesic activity of the compound (I) was compared to that of standard analgesic drugs (Table III).
*Duration of Action in Rat Hot Plate assay represents the time in hrs to
reduce 1.5 times the hot plate ED50 to 40% inhibition.

[4] = Acetic Acid Writhing Test (AAWT) in the rat; type: in vivo; settings: po, read-out: ED50 (Acetic Acid Writhing Assay in the Rat)
Excerpt: Using the procedure described by Koster et al. in Fed. Proc. 18, 412 (1959) and Vinegar et al. in Handbook of Experimental Pharmcology, 50-2, ch.

[5] = analgesic activity, assay not given (including inhibition by naloxone); type: in vivo
[6] = test system: morphine receptor; assay: binding to the morphine receptor
[7] = Carrageenin Pleurisy Assay (CPA), acute anti-inflammatory activity; type: in vivo, rat
Procedure: Following the procedure described by Vinegar et al. in Proc. Soc. Exp. Biol. Med. 151, 556, (1976), the acute anti-inflammatory activity of the compound (I) was compared with that of known anti-inflammatory drugs in the rat. The average 3 hour exudate volume for each drug-treated group was determined and the % inhibition relative to solvent-fed control animals calculated, the ED50 being the dose required to reduce the 3 hour exudate volume by 50%.

[8] = po, 1 h, rat, p.o., 6.0 kg Force, agent given 15 minutes before trypsin, pain scores 60 minutes after trypsin, read-out: ED50, 6.0 kg Force (Modified Trypsin Hyperalgesic Assay)
[9] = rat, p.o., 60 min prior to testing, plate 45±1.0° C.

## CC(=O)Nc1ccc(O)cc1 [Acetaminophen]
[1]
  ED50: 72 ± 8.6 mg/kg
  antipyretic activity (in words): combats fever in the rat
[2]; [8]
  ED50: 95 ± 17.2 mg/kg
[2]; po, rat, p.o., 7.5 kg Force, @ 200 mg/kg, read-out: ED50, 7.5 kg Force (Modified Trypsin Hyperalgesic Assay), inactive
  ED50 at 200 mg/kg: > 200 mg/kg
[3]; rat, p.o.
  Hot Plate Assay - Rat ED50, inactive: Inactive

## CC(=O)Oc1ccccc1C(=O)O [Aspirin]
[1]
  ED50: 50 ± 8.1 mg/kg
  antipyretic activity (in words): combats fever in the rat
[4]; Rattus norvegicus
  ED50: 21 ± 3.4 mg/kg
[2]; Rattus norvegicus, po, read-out: ED50, 6.0 kg Force (Modified Trypsin Hyperalgesic Assay), inactive
  ED50: > 180 mg/kg
[3]; rat, p.o.
  Hot Plate Assay - Rat ED50, inactive: Inactive

## COc1ccc2c3c1O[C@H]1[C@@H](O)C=C[C@H]4[C@@H](C2)N(C)CC[C@@]341 [Codeine Phosphate]
[4]; Rattus norvegicus
  ED50: 30 ± 2.7 mg/kg
[2]; Rattus norvegicus, po, 1 h, read-out: ED50, 6.0 kg Force (Modified Trypsin Hyperalgesic Assay)
  ED50: 10 ± 1.7 mg/kg
[2]; Rattus norvegicus, po, 1 h, read-out: ED50, 7.5 kg Force (Modified Trypsin Hyperalgesic Assay)
  ED50: 8.8 ± 2.77 mg/kg

## COc1ccc2c3c1O[C@H]1[C@@H](O)C=C[C@H]4[C@@H](C2)N(C)CC[C@@]341 [Codeine]
[3]; [9]
  ED50: 57 ± 35.3 mg/kg
[3]; rat, p.o., dose 90 mg/kg
  Hot plate Duration of Action (time to reduce 1.5 times the hot plate ED50 to 40% inhibition): 3.3 h

## O=C1CCCN1c1ccc2c(c1)OCO2 [Compound I, 1-(1,3-benzodioxol-5-yl)-2-pyrrolidinone]
[1]
  ED50: 67 ± 4.2 mg/kg
  antipyretic activity (in words): antipyretic activity
[5]; in vivo
  analgesic activity (in words): mild to moderately strong analgesic activity
[5]; naloxone
  inhibition of analgesic activity by naloxone (in words): analgesic activity is not inhibited by naloxone
[4]; rat, p.o.
  ED50: 36 ± 7.1 mg/kg
[2]; [8]
  ED50: 24 ± 5.3 mg/kg
[2]; po, 1 h, rat, p.o., 7.5 kg Force, agent given 15 minutes before trypsin, pain scores 60 minutes after trypsin, read-out: ED50, 7.5 kg Force (Modified Trypsin Hyperalgesic Assay)
  ED50: 23 ± 3.5 mg/kg
[2]; trypsin assay, versus acetaminophen, aspirin, zomepirac, codeine, morphine
  analgesic activity compared with known analgesics in the trypsin assay (in words): superior to acetaminophen and the prostaglandin synthetase inhibitors such as aspirin and zomepirac as shown in the trypsin assay but less active than the opiates such as codeine or morphine
[6]
  binding to the morphine receptor (in words): does not bind to the morphine receptor
[3]; [9]
  ED50: 86 ± 16.5 mg/kg
[3]; rat, p.o., dose 120 mg/kg
  Hot plate Duration of Action (time to reduce 1.5 times the hot plate ED50 to 40% inhibition): 5.0 h
[3]; versus codeine or morphine, assay not given
  duration of analgesic action (in words): significantly greater for compound (I) than for codeine or morphine
[7]; po, 3 h, rat, p.o., relative to solvent-fed control animals, read-out: ED50, dose required to reduce the 3 hour exudate volume by 50% (CPA)
  ED50: 48 ± 10.5 mg/kg
[7]; rat, carrageenan pleurisy assay
  acute anti-inflammatory activity (in words): potent, long-lasting acute anti-inflammatory activity
[7]; versus acetaminophen at comparable dose levels
  acute anti-inflammatory action compared with acetaminophen (in words): more potent and to have a longer-lasting anti-inflammatory effect at comparable dose levels

## CN1CC[C@]23c4c5ccc(O)c4O[C@H]2[C@@H](O)C=C[C@H]3[C@H]1C5 [Morphine]
[3]; Rattus norvegicus
  ED50: 17 ± 3.6 mg/kg
[3]; rat, p.o., dose 30 mg/kg
  Hot plate Duration of Action (time to reduce 1.5 times the hot plate ED50 to 40% inhibition): 2.5 h
